Experimental data as given in publication PMC7060258 (Scientific Reports, 2020).
No end group written: not given here.

How the values were obtained:
[1] = test system: pancreatic kallikrein; test: SPR interaction with pancreatic kallikrein; type: binding; conditions: for SPR binding to kallikrein (in words): peptide immobilized on CM4 chip
Procedure: (§1) The interaction of the peptides with serine proteinases (trypsin, α-chymotrypsin, human neutrophil elastase, pancreatic kallikrein and cathepsin G) was studied using the surface plasmon resonance (SPR) method. The peptides were immobilized on a CM4 sensor chip. […] Kinetic parameters were calculated at 25 °C. Obtained data indicated the formation of tight complexes and eliminated non-specific binding (Table 2).
(§2) The study of the interaction of serine proteinases with rHCIQ2c1 and rHCIQ4c7 was performed on SPR biosensor Biacore 3000 (GE Healthcare, USA) running under the program “Biacore 3000 Control Software v.1.0”. The evaluation of data was carried out using “Biacore Evaluation v.4.1”. Peptides were covalent immobilized on carboxymethylated surface of the Biacore CM4 sensor chip (GE Healthcare, USA) activated by EDC/NHS (N-hydroxysuccinimide/1-ethyl-3-(3-dimethylaminopropyl)carbodiimide hydrochloride) mixture by the injection of peptide solution (100 µg/ml) in 10 mM sodium acetate (pH 5.5) during 10 min with flow rate 5 µl/min. Quantities of immobilized peptides were 970 RU (resonance units, 1 RU corresponds 1 pg peptide) for rHCIQ2c1 and 460 RU for rHCIQ4c7. In all of the experiments, the flow cell 1 (Fc1) without the immobilized polypeptides was considered as the reference cell for the correction of the signal responses. HBS (HEPES buffered saline-NaCl): 0.15 M NaCl, 0.01 M HEPES, pH 7.4 (cat. no. BR-1003-69, GE Healthcare, USA) was used as the running buffer for the SPR assays. Protease solutions at concentrations from 1 nM to 5 μM were passed through measuring and control biosensor cells at 25 °C during 5 min with a flow rate 5 µl/min. Further complex breakdown was recorded during at most 10 min. After each cycle of SPR measurement, the sensing surface was regenerated by the injection of 50 mM NaOH for 0.5 min at a flow rate of 50 μl/min. Changes in Gibbs free energy (ΔG) at 25 °C were calculated by the following equation:1 ΔG=RTlnKD, where KD is the dissociation constant. Changes in enthalpy (ΔH) and entropic term (−TΔS) were calculated from the linear equation:2 ΔG=ΔH−TΔS, using the liner approximation of temperature dependence of ΔG (Van’t Hoff diagram).

[2] = test system: rKv1.6; test: Two-electrode voltage clamp, rKv1.6 in X. laevis oocytes; type: cell-based; conditions: 10 μM, 18–22 °C, n ≥ 3
Procedure: (§3) For the expression of the voltage-gated potassium channels (rKv1.1, rKv1.2, hKv1.3, rKv1.4, rKv1.5, rKv1.6, Shaker IR and hERG) in X. laevis oocytes, the linearized plasmids were transcribed using the T7 or SP6 mMESSAGE-mMACHINE transcription kit (Ambion, USA). The harvesting of stage V–VI oocytes from an anaesthetized female X. laevis frog was previously described. Oocytes were injected with 50 nl of cRNA at a concentration of 1 ng/nl using a micro-injector (Drummond Scientific, USA). The oocytes were incubated in a solution containing (in mM): NaCl, 96; KCl, 2; CaCl2, 1.8; MgCl2, 2; HEPES, 5 (pH 7.4), supplemented with 50 mg/l gentamycin sulfate.
(§4) Two-electrode voltage-clamp recordings were performed at room temperature (18–22 °C) using a Geneclamp 500 amplifier (Molecular Devices, USA) controlled by a pClamp data acquisition system (Axon Instruments, USA), as described in[47]. Whole cell currents from oocytes were recorded 1–4 days after injection. Bath solution composition was ND96 (in mM): NaCl, 96; KCl, 2; CaCl2, 1.8; MgCl2, 2 and HEPES, 5 (pH 7.4). Voltage and current electrodes were filled with 3 M KCl. The resistances of both electrodes were kept between 0.7 and 1.5 MΩ. […] All data were analysed using pClamp Clampfit 10.0 (Molecular Devices, Downingtown, PA, USA) and Origin 7.5 software (Originlab, Northampton, MA, USA).

[3] = test system: rKv1.4; test: Two-electrode voltage clamp, rKv1.4 in X. laevis oocytes; type: cell-based; conditions: 10 μM, 18–22 °C, n ≥ 3
Procedure: as §3, §4

[4] = test system: α-chymotrypsin; test: SPR interaction with α-chymotrypsin; type: binding; conditions: for SPR binding to α-chymotrypsin (in words): peptide immobilized on CM4 chip
Procedure: as §1, §2

[5] = test system: rKv1.1; test: Two-electrode voltage clamp, rKv1.1 in X. laevis oocytes; type: cell-based; conditions: 10 μM, 18–22 °C, n ≥ 3
Procedure: as §3, §4

[6] = test system: human neutrophil elastase; test: SPR interaction with neutrophil elastase; type: binding; conditions: for SPR binding to neutrophil elastase (in words): peptide immobilized on CM4 chip; for ka, association rate constant / kd, dissociation rate constant: protease 1 nM to 5 μM
Procedure: as §1, §2

[7] = test system: hKv1.3; test: Two-electrode voltage clamp, hKv1.3 in X. laevis oocytes; type: cell-based; conditions: 10 μM, 18–22 °C, n ≥ 3
Procedure: as §3, §4

[8] = test system: trypsin; test: SPR interaction with trypsin; type: binding; conditions: for SPR binding to trypsin (in words): peptide immobilized on CM4 chip; for ka, association rate constant / kd, dissociation rate constant: protease 1 nM to 5 μM; for Kd: read-out: KD, dissociation constant
Procedure: as §1, §2

[9] = kallikrein, SPR Biacore 3000, peptide immobilized on CM4 chip, HBS pH 7.4, 25 °C, protease 1 nM to 5 μM
[10] = α-chymotrypsin, SPR Biacore 3000, peptide immobilized on CM4 chip, HBS pH 7.4, 25 °C, protease 1 nM to 5 μM
[11] = neutrophil elastase, SPR Biacore 3000, peptide immobilized on CM4 chip, HBS pH 7.4, 25 °C
[12] = trypsin, SPR Biacore 3000, peptide immobilized on CM4 chip, HBS pH 7.4, 25 °C

Substance | SPR binding to kallikrein (in words) [1] | Activity on Kv1.6 [2] | Activity on Kv1.4 [3] | SPR binding to α-chymotrypsin (in words) [4] | Activity on Kv1.1 [5] | SPR binding to neutrophil elastase (in words) ([6]; SPR) | KA, association constant [6, 11] | ka, association rate constant [6, 11] | kd, dissociation rate constant [6, 11] | Activity on Kv1.3 [7] | SPR binding to trypsin (in words) ([8]; SPR) | ka, association rate constant [8, 12] | kd, dissociation rate constant [8, 12] | Kd [8, 12] | further results
rHCIQ2c1: recombinant Kunitz-peptide of Heteractis crispa, most prevalent isoform, mature peptide 58 aa, expressed in E. coli (IQGNICSEPKKVGRCRGSFPRFYFDSETGKCTPFIYGGCGGNGNNFETLHACRAICRA; ends and bridges not checked; cysteine pairing not given here) | specifically binds to all target proteinases | neither 10 μM of rHCIQ2c1 nor rHCIQ4c7 exerted any activity on the Kv channels | neither 10 μM of rHCIQ2c1 nor rHCIQ4c7 exerted any activity on the Kv channels | specifically binds to all target proteinases | neither 10 μM of rHCIQ2c1 nor rHCIQ4c7 exerted any activity on the Kv channels | specifically binds to all target proteinases | 7.9e+06 M⁻¹ | 68000 s/M | 0.00861 s⁻¹ | neither 10 μM of rHCIQ2c1 nor rHCIQ4c7 exerted any activity on the Kv channels | specifically binds to all target proteinases | 20500 s/M | 0.00817 s⁻¹ | 0.251 nM | KA, association constant ([1]; kallikrein, SPR Biacore 3000, peptide immobilized on CM4 chip, HBS pH 7.4, 25 °C): 2.04e+06 M⁻¹; ka, association rate constant [1, 9]: 49400 s/M; kd, dissociation rate constant [1, 9]: 0.00379 s⁻¹; KA, association constant ([4]; α-chymotrypsin, SPR Biacore 3000, peptide immobilized on CM4 chip, HBS pH 7.4, 25 °C): 1.03e+07 M⁻¹; ka, association rate constant [4, 10]: 76900 s/M; kd, dissociation rate constant [4, 10]: 0.00749 s⁻¹; Kd ([4]; α-chymotrypsin, SPR Biacore 3000, peptide immobilized on CM4 chip, HBS pH 7.4, 25 °C, read-out: KD, dissociation constant): 97.4 nM
rHCIQ4c7: recombinant Kunitz-peptide of Heteractis crispa, isoform with the rare substitution Gly17Glu | bounds to trypsin and elastase only | neither 10 μM of rHCIQ2c1 nor rHCIQ4c7 exerted any activity on the Kv channels | neither 10 μM of rHCIQ2c1 nor rHCIQ4c7 exerted any activity on the Kv channels | bounds to trypsin and elastase only | neither 10 μM of rHCIQ2c1 nor rHCIQ4c7 exerted any activity on the Kv channels | bounds to trypsin and elastase only | 1.05e+06 M⁻¹ | 11900 s/M | 0.0114 s⁻¹ | neither 10 μM of rHCIQ2c1 nor rHCIQ4c7 exerted any activity on the Kv channels | bounds to trypsin and elastase only | 22500 s/M | 0.00466 s⁻¹ | 207 nM | KD with elastase relative to rHCIQ2c1 ([6]; SPR, 25 °C): binding with elastase differed insignificantly; Kd ([6]; neutrophil elastase, SPR Biacore 3000, peptide immobilized on CM4 chip, HBS pH 7.4, 25 °C, read-out: KD, dissociation constant): 955 nM; KD with trypsin relative to rHCIQ2c1 ([8]; SPR, 25 °C): higher by three orders than for rHCIQ2c1; KA, association constant [8, 12]: 4.83e+06 M⁻¹
